Measured values published in BigSolDB 2.1.

COC1=CC(=O)C[C@@H](C)[C@]12Oc1c(Cl)c(OC)cc(OC)c1C2=O
Details | solubility (mole fraction)
in 1,2-dichloroethane, 290.05 K | 0.0197
in 1,2-dichloroethane, 294.3 K | 0.0209
in 1,2-dichloroethane, 300.25 K | 0.0222
in 1,2-dichloroethane, 305.55 K | 0.0236
in 1,2-dichloroethane, 310.05 K | 0.0251
in 1,2-dichloroethane, 315.65 K | 0.0268
in 1,2-dichloroethane, 319.35 K | 0.0289
in 1,2-dichloroethane, 324.05 K | 0.0311
in 1,2-dichloroethane, 329.65 K | 0.0335
in 2-butanone, 289.65 K | 0.00826
in 2-butanone, 296.95 K | 0.00941
in 2-butanone, 302.95 K | 0.0103
in 2-butanone, 308.25 K | 0.0117
in 2-butanone, 315.05 K | 0.0128
in 2-butanone, 320.4 K | 0.0141
in 2-butanone, 325.45 K | 0.0151
in 2-butanone, 330.35 K | 0.0163
in DMAc, 296.2 K | 0.0252
in DMAc, 301.25 K | 0.0276
in DMAc, 305.75 K | 0.0303
in DMAc, 310.75 K | 0.0326
in DMAc, 314.95 K | 0.0344
in DMAc, 319.25 K | 0.0369
in DMAc, 324.75 K | 0.0395
in DMAc, 330.05 K | 0.0422
in DMAc, 336.15 K | 0.0452
in DMAc, 340.25 K | 0.0488
in DMAc, 345.75 K | 0.0518
in DMAc, 350.55 K | 0.0549
in DMAc, 354.78 K | 0.0582
in DMSO, 296.75 K | 0.0167
in DMSO, 301.15 K | 0.0186
in DMSO, 306.15 K | 0.0204
in DMSO, 310.85 K | 0.0218
in DMSO, 315.55 K | 0.0239
in DMSO, 320.55 K | 0.026
in DMSO, 326.55 K | 0.0282
in DMSO, 331.95 K | 0.0302
in DMSO, 336.75 K | 0.0324
in DMSO, 341.05 K | 0.0345
in DMSO, 346.25 K | 0.0368
in DMSO, 351.7 K | 0.0393
in DMSO, 357.6 K | 0.0415
in NMP, 295.55 K | 0.0421
in NMP, 300.65 K | 0.0451
in NMP, 305.75 K | 0.048
in NMP, 310 K | 0.0511
in NMP, 315.1 K | 0.0541
in NMP, 320.6 K | 0.057
in NMP, 325.45 K | 0.0601
in NMP, 330.45 K | 0.0631
in NMP, 335.55 K | 0.0666
in NMP, 340.35 K | 0.0704
in NMP, 345.55 K | 0.0758
in NMP, 350.35 K | 0.0795
in NMP, 355.65 K | 0.083
in acetone, 281.95 K | 0.00648
in acetone, 286.4 K | 0.0071
in acetone, 291.85 K | 0.00776
in acetone, 296.4 K | 0.00853
in acetone, 300.8 K | 0.00941
in acetone, 305.05 K | 0.0102
in acetone, 310.25 K | 0.0117
in acetone, 313.65 K | 0.0129
in acetone, 317.05 K | 0.0143
